Assays:
[1] = test system: pancreatic acinar carcinoma AR42J-B13 cells; conditions: cited from earlier work
K-ras-NRK cells = assay: Morphological change of K-ras-NRK cells; assay type: cell-based; conditions: final concentration 0.1 μg/ml, three days, FIG. 4
Text: Conophylline is known to induce a morphological change of K-ras-NRK cells. Thus, it was examined whether an extract of Ervatamia microphylla leaves induces morphological changes of K-ras-NRK cells. It is also known that leaves of the Malaysian Tabernaemontana contains conophylline (Org. Biomol. Chem. 1: 1292-1297, 2003). Thus, it was examined that whether an extract of leaves of crape jasmine, the Japanese Tabernaemontana divaricata, also induces morphological changes in K-ras-NRK cells. An extract of each plant was prepared, in the same manner as described in Example 1, by extracting the active ingredient contained in the leaves with methanol, then removing solids by suction filtration, followed by concentring and drying, and dissolving the resulting powder into methanol.
500 μl of a suspension ([…] per culture medium (DMEM containing 5% FBS, 0.6 g/l glutamine, 0.2 g/l kanamycin, 2.25 g/l NaHCO3)) of K-Ras-NRK cells was added to each well of 24-well plastic plates at 2.0×10^4 cells/well, and the plates were incubated at 37° C. under 5% CO2. The next day, conophylline (final concentration: 0.1 μg/ml), an extract of Ervatamia microphylla leaves (final concentration: 10 μg/ml), and an extract of crape jasmine leaves (final concentration: 10 μg/ml) were added to the culture medium, which was incubated at 37° C. under the condition of 5% CO2 for three days. […]

[2] = test system: AR42J cells (ATCC CRL 1492); assay: Morphological change of AR42J cells as marker of induced differentiation into insulin-producing cells; assay type: cell-based; conditions: final concentration 0.1 μg/ml, three days, FIG. 1B
Method: Thus, it was examined whether an extract of Ervatamia microphylla can induce AR42J cells to differentiate into insulin-producing cells. It should be noted that, since characteristic morphological changes of cells are observed as differentiation into insulin-producing cells is induced, morphological changes in AR42J cell were examined as a marker of differentiation induction in this Example. AR42J cells were cultured in the media prepared by sterilizing Dulbecco modification Eagle' medium (DMEM; Nissui Pharmaceutical Co., Ltd.) by filtration after its pH was adjusted to 7.4 in the presence of 20 mM HEPES-NaOH and adding 0.6 g/l glutamine (Kanto Chemical Co., Inc: Tokyo, Japan), 0.2 g/l kanamycin (Sigma Chemical Science; Sigma: St.Louis, Mo., USA), 100 unit/ml penicillin G (Sigma), 5 mM NaHCO3, and 10% fetal bovine serum (FBS; Sigma).
500 μl of a suspension of AR42J cells (4.0×10^5 cells/ml per culture medium) was plated into each well of 24-well plastic plates (Corning) at 2×10^5 cells/well and cultured under the conditions of 37° C. and 5% CO2. […]

[3] = test system: streptozotocin-induced diabetic rats; assay: Blood glucose levels of streptozotocin-administered rats; assay type: in vivo, Wistar rats; conditions: 5 μg/g BW subcutaneously for seven consecutive days from day 1 after streptozotocin 85 μg/g BW i.p.; P<0.05 / P<0.01 vs Control
Method: Ten 1-day-old Wistar rats (purchased from Japan SLC, Shizuoka, Japan) were intraperitoneally injected with streptozotocin (purchased from Wako Pure Chemical Industries, Ltd., dissolved in […] citrate buffer (pH 4.5)) at 85 μg/g BW per rat. Streptozotocin decreases insulin production by destroying pancreatic cells, thereby inducing diabetes. The day of streptozotocin injection was defined as day 0. Starting from the next day (day 1), five rats were injected subcutaneously with a solution (ethanol) of conophylline at 5 μg/g BW for seven consecutive days and their blood glucose levels were measured at a predetermined time daily. Five rats in the control group received the same volume of solvent (control).

CC[C@@]12CC(C(=O)OC)=C3Nc4cc5c(cc4[C@@]34CCN(C[C@H]3O[C@H]31)[C@@H]24)[C@@H]1[C@H](O5)[C@@H](O)[C@@]2(CC)CC(C(=O)OC)=C3Nc4c(cc(O)c(OC)c4OC)[C@@]34CCN1[C@@H]24 [conophylline]
induction of differentiation into insulin-producing cells ([1]; Abstracts of the 45th Annual Meeting of the Japan Diabetes Society, 2002): induces differentiation of pancreatic acinar carcinoma AR42J-B13 cells into insulin-producing cells | insulin release from the induced insulin-producing cells ([1]; same literature condition): do not release insulin from the cells | morphological change of K-ras-NRK cells (K-ras-NRK cells): undergo a morphological change | morphological change of AR42J cells (induction of differentiation into insulin-producing cells) [2]: undergo a morphological change from small spherical cells to flat cells partly with processes | blood glucose level compared with the control [3]: apparent decrease in blood glucose levels
